Patent US20250002507A1, “7,8-DIHYDRO-5H-1,6-NAPHTHYRIDINE DERIVATIVES AS POSITIVE ALLOSTERIC MODULATORS OF THE MUSCARINIC ACETYLCHOLINE RECEPTOR M4 FOR TREATING NEUROLOGICAL AND PSYCHIATRIC DISORDERS” (Vanderbilt University, priority 2021, published 2025)
pEC50: −log10 of the molar value.

Molecular target: T1, Human M4 (Homo sapiens, UniProt P08173)
T1 construct: expressed in transfected cells
T1 sequence (P08173 1-479): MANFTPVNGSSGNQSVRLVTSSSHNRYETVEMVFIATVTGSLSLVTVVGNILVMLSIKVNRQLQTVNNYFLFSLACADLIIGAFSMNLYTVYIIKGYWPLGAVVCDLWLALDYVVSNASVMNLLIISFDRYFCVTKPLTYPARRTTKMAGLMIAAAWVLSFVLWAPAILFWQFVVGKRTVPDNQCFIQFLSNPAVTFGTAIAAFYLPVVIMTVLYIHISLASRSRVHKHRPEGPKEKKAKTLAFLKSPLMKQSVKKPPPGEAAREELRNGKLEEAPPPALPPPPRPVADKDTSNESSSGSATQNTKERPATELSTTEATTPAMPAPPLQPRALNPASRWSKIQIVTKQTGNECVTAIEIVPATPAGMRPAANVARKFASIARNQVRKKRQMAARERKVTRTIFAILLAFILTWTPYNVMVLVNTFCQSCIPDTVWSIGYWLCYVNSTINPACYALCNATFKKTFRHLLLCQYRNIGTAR
Test: mAChR M4 cell-based functional assay (calcium flux, potentiation of EC20 acetylcholine response), hM4-Gqi5 CHO-K1 cells
Conditions: for Emax at 30 µM: CHO-K1, % ACh maximum at 30 μM, human M4, read-out: Emax; for pEC50: hM4-Gqi5 CHO-K1 cells, calcium flux, PAM of EC20 acetylcholine, read-out: Human M4 EC50
Outline: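 Positive allosteric modulation was scored as a concentration-dependent rise in the response to an EC20 dose of acetylcholine, added 144 s after the compound. Human M4-Gqi5 CHO-K1 cells carried Fluo-4 dye, and compounds ran as 11-point, 3-fold dilution series. EC50 and Emax came from four-parameter logistic fits of the FDSS fluorescence-ratio traces.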

| Emax at 30 µM [%] | pEC50 | Compound |
| --- | --- | --- |
| 90 | 6.30 | Cc1c(N2CCc3ncc(-c4cnn(CC5CC5)c4)cc3C2)nn2c(C(F)(F)F)nnc2c1C [Compound 95, 3-[1-(cyclopropylmethyl)pyrazol-4-yl]-6-[7,8-dimethyl-3-(trifluoromethyl)-[1,2,4]triazolo[4,3-b]pyridazin-6-yl]-7,8-dihydro-5H-1,6-naphthyridine] |
| 97 | 6.97 | Cc1c(N2CCc3ncc(-c4cncs4)cc3C2)nn2c(C(F)(F)F)nnc2c1C [Compound 96, 5-[6-[7,8-dimethyl-3-(trifluoromethyl)-[1,2,4]triazolo[4,3-b]pyridazin-6-yl]-7,8-dihydro-5H-1,6-naphthyridin-3-yl]thiazole] |
| 87 | 6.70 | Cc1c(N2CCc3ncc(-c4cnn(C5CCCC5)c4)cc3C2)nn2cnnc2c1C [Compound 97, 3-(1-cyclopentylpyrazol-4-yl)-6-(7,8-dimethyl-[1,2,4]triazolo[4,3-b]pyridazin-6-yl)-7,8-dihydro-5H-1,6-naphthyridine] |
| 102 | 6.48 | Cc1c(N2CCc3ncc(-c4cnn(CC(F)(F)F)c4)cc3C2)nn2cnnc2c1C [Compound 98, 6-(7,8-dimethyl-[1,2,4]triazolo[4,3-b]pyridazin-6-yl)-3-[1-(2,2,2-trifluoroethyl)pyrazol-4-yl]-7,8-dihydro-5H-1,6-naphthyridine] |
| 95 | 6.56 | Cc1c(N2CCc3ncc(-c4cnn(C5CCC5)c4)cc3C2)nn2cnnc2c1C [Compound 99, 3-(1-cyclobutylpyrazol-4-yl)-6-(7,8-dimethyl-[1,2,4]triazolo[4,3-b]pyridazin-6-yl)-7,8-dihydro-5H-1,6-naphthyridine] |
| 101 | 6.60 | CCn1cc(-c2cnc3c(c2)CN(c2nn4cnnc4c(C)c2C)CC3)cn1 [Compound 100, 6-(7,8-dimethyl-[1,2,4]triazolo[4,3-b]pyridazin-6-yl)-3-(1-ethylpyrazol-4-yl)-7,8-dihydro-5H-1,6-naphthyridine] |
| 98 | 6.41 | Cc1c(N2CCc3ncc(-c4cc[nH]c4)cc3C2)nn2cnnc2c1C [Compound 101, 6-(7,8-dimethyl-[1,2,4]triazolo[4,3-b]pyridazin-6-yl)-3-(1H-pyrrol-3-yl)-7,8-dihydro-5H-1,6-naphthyridine] |
| 94 | 6.98 | Cc1ccncc1-c1cnc2c(c1)CN(c1nn3cnnc3c(C)c1C)CC2 [Compound 102, 6-(7,8-dimethyl-[1,2,4]triazolo[4,3-b]pyridazin-6-yl)-3-(4-methyl-3-pyridyl)-7,8-dihydro-5H-1,6-naphthyridine] |
| 97 | 6.63 | Cc1cc2nncn2nc1N1CCc2ncc(-c3cncs3)cc2C1 [Compound 103, 5-[6-(7-methyl-[1,2,4]triazolo[4,3-b]pyridazin-6-yl)-7,8-dihydro-5H-1,6-naphthyridin-3-yl]thiazole] |
| 91 | 6.40 | Cc1cc2nncn2nc1N1CCc2ncc(-c3c(C)nn(C)c3C)cc2C1 [Compound 104, 6-(7-methyl-[1,2,4]triazolo[4,3-b]pyridazin-6-yl)-3-(1,3,5-trimethylpyrazol-4-yl)-7,8-dihydro-5H-1,6-naphthyridine] |
| 86 | 6.49 | Cc1cc2nncn2nc1N1CCc2ncc(-c3c(C)noc3C)cc2C1 [Compound 105, 3,5-dimethyl-4-[6-(7-methyl-[1,2,4]triazolo[4,3-b]pyridazin-6-yl)-7,8-dihydro-5H-1,6-naphthyridin-3-yl]isoxazole] |
| 59 | 6.63 | Cc1cc2nncn2nc1N1CCc2ncc(-c3cnn(C4CCCCC4)c3)cc2C1 [Compound 106, 3-(1-cyclohexylpyrazol-4-yl)-6-(7-methyl-[1,2,4]triazolo[4,3-b]pyridazin-6-yl)-7,8-dihydro-5H-1,6-naphthyridine] |
| 80 | 6.95 | Cc1cc2nccn2nc1N1CCc2ncc(-c3cncs3)cc2C1 [Compound 107, 5-[6-(7-methylimidazo[1,2-b]pyridazin-6-yl)-7,8-dihydro-5H-1,6-naphthyridin-3-yl]thiazole] |
| 85 | 6.40 | Cc1cc2nccn2nc1N1CCc2ncc(-c3cn(C)nc3C)cc2C1 [Compound 108, 3-(1,3-dimethylpyrazol-4-yl)-6-(7-methylimidazo[1,2-b]pyridazin-6-yl)-7,8-dihydro-5H-1,6-naphthyridine] |
| 81 | 6.35 | Cc1cc2nccn2nc1N1CCc2ncc(-c3c(C)nn(C)c3C)cc2C1 [Compound 109, 6-(7-methylimidazo[1,2-b]pyridazin-6-yl)-3-(1,3,5-trimethylpyrazol-4-yl)-7,8-dihydro-5H-1,6-naphthyridine] |
| 62 | 6.63 | Cc1cc2nccn2nc1N1CCc2ncc(-c3c(C)noc3C)cc2C1 [Compound 110, 3,5-dimethyl-4-[6-(7-methylimidazo[1,2-b]pyridazin-6-yl)-7,8-dihydro-5H-1,6-naphthyridin-3-yl]isoxazole] |
| 69 | 5.93 | Cc1cc2nccn2nc1N1CCc2ncc(-c3ccn(C)n3)cc2C1 [Compound 111, 6-(7-methylimidazo[1,2-b]pyridazin-6-yl)-3-(1-methylpyrazol-3-yl)-7,8-dihydro-5H-1,6-naphthyridine] |
| 101 | 6.91 | Cc1c(N2CCc3ncc(-c4cnn(C)c4)cc3C2)nn2cnnc2c1C [Compound 112, 6-(7,8-dimethyl-[1,2,4]triazolo[4,3-b]pyridazin-6-yl)-3-(1-methylpyrazol-4-yl)-7,8-dihydro-5H-1,6-naphthyridine] |
| 97 | 6.48 | Cc1cc2nncn2nc1N1CCc2ncc(-c3cn(C)nc3C)cc2C1 [Compound 113, 3-(1,3-dimethylpyrazol-4-yl)-6-(7-methyl-[1,2,4]triazolo[4,3-b]pyridazin-6-yl)-7,8-dihydro-5H-1,6-naphthyridine] |
| 88 | 6.15 | Cc1cc2nncn2nc1N1CCc2ncc(-c3ccn(C)n3)cc2C1 [Compound 114, 3-(1-methylpyrazol-3-yl)-6-(7-methyl-[1,2,4]triazolo[4,3-b]pyridazin-6-yl)-7,8-dihydro-5H-1,6-naphthyridine] |
| 73 | 5.38 | Cc1c(N2CCc3ncc(C(=O)NCc4ccc(C(C)(C)O)cc4)cc3C2)nn2cnnc2c1C [Compound 115, 6-(7,8-dimethyl-[1,2,4]triazolo[4,3-b]pyridazin-6-yl)-N-[[4-(1-hydroxy-1-methyl-ethyl)phenyl]methyl]-7,8-dihydro-5H-1,6-naphthyridine-3-carboxamide] |
| 75 |  | Cc1c(N2CCc3ncc(C(=O)NCC4CCCOC4)cc3C2)nn2cnnc2c1C (stereo not drawn) [Compound 116, 6-(7,8-dimethyl-[1,2,4]triazolo[4,3-b]pyridazin-6-yl)-N-(tetrahydropyran-3-ylmethyl)-7,8-dihydro-5H-1,6-naphthyridine-3-carboxamide] |
| 67 |  | Cc1c(N2CCc3ncc(C(=O)N4CC(F)C4)cc3C2)nn2cnnc2c1C [Compound 117, [6-(7,8-dimethyl-[1,2,4]triazolo[4,3-b]pyridazin-6-yl)-7,8-dihydro-5H-1,6-naphthyridin-3-yl]-(3-fluoroazetidin-1-yl)methanone] |
| 99 | 6.15 | Cc1c(N2CCc3ncc(C(=O)NCc4cncs4)cc3C2)nn2cnnc2c1C [Compound 118, 6-(7,8-Dimethyl-[1,2,4]triazolo[4,3-b]pyridazin-6-yl)-N-(thiazol-5-ylmethyl)-7,8-dihydro-5H-1,6-naphthyridine-3-carboxamide] |
| 73 |  | Cc1c(N2CCc3ncc(C(=O)N4CCC(O)CC4C)cc3C2)nn2cnnc2c1C (stereo not drawn) [Compound 119, [6-(7,8-dimethyl-[1,2,4]triazolo[4,3-b]pyridazin-6-yl)-7,8-dihydro-5H-1,6-naphthyridin-3-yl]-(4-hydroxy-2-methyl-1-piperidyl)methanone] |
| 76 |  | Cc1c(N2CCc3ncc(C(=O)NCC4COC4)cc3C2)nn2cnnc2c1C [Compound 120, 6-(7,8-dimethyl-[1,2,4]triazolo[4,3-b]pyridazin-6-yl)-N-(oxetan-3-ylmethyl)-7,8-dihydro-5H-1,6-naphthyridine-3-carboxamide] |
| 100 | 6.06 | Cc1c(N2CCc3ncc(C(=O)NCc4cccs4)cc3C2)nn2cnnc2c1C [Compound 121, 6-(7,8-dimethyl-[1,2,4]triazolo[4,3-b]pyridazin-6-yl)-N-(2-thienylmethyl)-7,8-dihydro-5H-1,6-naphthyridine-3-carboxamide] |
| 51 |  | Cc1c(N2CCc3ncc(C(=O)N4CCN(C5CC5)CC4)cc3C2)nn2cnnc2c1C [Compound 122, (4-cyclopropylpiperazin-1-yl)-[6-(7,8-dimethyl-[1,2,4]triazolo[4,3-b]pyridazin-6-yl)-7,8-dihydro-5H-1,6-naphthyridin-3-yl]methanone] |
